Earlier results on one compound are cited in patent publication US7705000B2, “Oral suspension comprising meloxicam” (Janssen Pharmaceutica N.V., priority 2004, dated 2010).

The conditions of the series: at a pH of 4.

Consider `Cc1cnc(NC(=O)C2=C(O)c3ccccc3S(=O)(=O)N2C)s1` [meloxicam, 4-hydroxy-2-methyl-N-(5-methyl-2-thiazolyl)-2H-1,2-benzo-thiazine-3-carboxamide-1,1-dioxide], for which the solubility of meloxicam is 0.5 µg/mL.
